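Protocol summary: plate cells (96-well), add compound at 5 concentrations, incubate 48 h, interpolate endpoints linearly. GI50 is the concentration that inhibits growth by half. The concentration for full growth arrest is given as TGI.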
Assays:
Assay in all cases: growth of human tumour cells (NCI), 48 h
UACC-62 melanoma = system: UACC-62 melanoma
OVCAR-5 ovarian = system: OVCAR-5 ovarian
SK-MEL-28 melanoma = system: SK-MEL-28 melanoma
CAKI-1 renal = system: CAKI-1 renal
ACHN renal = system: ACHN renal
NCI-H522 lung = system: NCI-H522 lung
SN12C renal = system: SN12C renal
TK-10 renal = system: TK-10 renal
HCC-2998 colon = system: HCC-2998 colon
A549 NSCLC = system: A549 NSCLC

| SMILES | TGI (UACC-62 melanoma) [µM] | TGI (OVCAR-5 ovarian) [µM] | TGI (SK-MEL-28 melanoma) [µM] | TGI (CAKI-1 renal) [µM] | TGI (ACHN renal) [µM] | TGI (NCI-H522 lung) [µM] | TGI (SN12C renal) [µM] | TGI (TK-10 renal) [µM] | TGI (HCC-2998 colon) [µM] | TGI (A549 NSCLC) [µM] | GI50 (UACC-62 melanoma) [µM] | GI50 (OVCAR-5 ovarian) [µM] | GI50 (SK-MEL-28 melanoma) [µM] | GI50 (CAKI-1 renal) [µM] | GI50 (ACHN renal) [µM] | GI50 (NCI-H522 lung) [µM] | GI50 (SN12C renal) [µM] | GI50 (TK-10 renal) [µM] | GI50 (HCC-2998 colon) [µM] | GI50 (A549 NSCLC) [µM] |
| --- | --- | --- | --- | --- | --- | --- | --- | --- | --- | --- | --- | --- | --- | --- | --- | --- | --- | --- | --- | --- |
| Cc1ccc(C)c(N2C(=O)C(=O)C(c3nc4ccccc4o3)/C(=N\NC(=O)c3ccccc3O)C2=O)c1 (centres undefined) | 84.4 | > 100 | > 100 | 18.5 | > 100 | 54 | > 100 | > 100 | > 100 | > 100 | – | – | – | – | – | – | – | – | – | – |
| COc1ccc(/C=C/c2cnccn2)cc1OC | > 10 | > 10 | > 10 | > 10 | > 10 | > 10 | > 10 | > 10 | > 10 | > 10 | – | – | – | – | – | – | – | – | – | – |
| COc1cc2c3c(n(CCCN(C)CCO)c(=O)c2cc1OC)-c1cc2c(cc1C3=O)OCO2 | 24.7 | > 100 | > 100 | > 100 | 4.33 | > 46 | > 100 | > 100 | > 52.1 | > 100 | 1.54 | 51.7 | > 80.2 | 0.936 | 0.277 | 2.16 | 2.75 | 81.7 | 7.05 | 9.49 |
| Cn1cc(S(=O)(=O)N2CCC3=Cc4c(cnn4-c4ccc(F)cc4)C[C@]3(C(=O)c3cc(C(F)(F)F)ccn3)C2)cn1 | > 100 | > 100 | > 100 | > 100 | > 100 | > 100 | > 100 | > 100 | > 100 | > 100 | 29.1 | > 100 | > 100 | 60.1 | > 100 | > 100 | > 100 | > 100 | > 100 | 39.7 |
| NCCCOc1cc2ccccc2cc1C(=O)NCCCOc1cc2ccccc2cc1C(=O)Nc1ccc(Cl)cc1O | 3.53 | 2.56 | 0.728 | 2.42 | 1.44 | 2.89 | 3.83 | 1.26 | 2.48 | 0.383 | 1.58 | 1.09 | 0.289 | 0.829 | 0.387 | 0.929 | 1.73 | 0.583 | 0.992 | 0.198 |
| COc1cc2c(cc1OC)C1Cc3cc(OC)c(OC)cc3N1CC2 (centres undefined) | > 100 | > 100 | > 100 | 88.5 | 43 | 35 | > 100 | 50.5 | > 100 | 79.9 | – | – | – | – | – | – | – | – | – | – |
| NCCCOc1cc(Cl)ccc1NC(=O)c1cc2ccccc2cc1OCCCN | 3.3 | 3.01 | 3.23 | 3.64 | 2.88 | 2.34 | 3.23 | 3.38 | 2.82 | 3.06 | 1.78 | 1.42 | 1.81 | 1.6 | 1.48 | 0.575 | 1.58 | 1.73 | 1.39 | 1.54 |
| Cn1cc(-c2csc(-c3cn(C)c4ccc(F)cc34)n2)c2cnccc21 | 3.2 | 3.15 | 3.22 | 3.19 | 3.26 | 3.34 | 3.14 | 2.98 | 3.55 | 3.27 | 1.74 | 1.68 | 1.79 | 1.77 | 1.84 | 1.77 | 1.7 | 1.56 | 1.86 | 1.67 |
| COc1cc(/C=C/C(=O)C(C(=O)/C=C/c2ccc(OC(=O)CCNC34CC5CC(CC(C5)C3)C4)c(OC)c2)C(=O)CCNC23CC4CC(CC(C4)C2)C3)ccc1OC(=O)CCNC12CC3CC(CC(C3)C1)C2 (centres undefined) | 13.3 | 19.6 | 4.28 | > 100 | 34.1 | 15.2 | 9.48 | 18.7 | 3.84 | 10.1 | 3.37 | 5.65 | 1.67 | 5.72 | 4.03 | 3.46 | 2.85 | 3.77 | 1.93 | 2.86 |
| CN1C(NNC(=O)c2cccnc2)=NS(=O)(=O)c2cc(Cl)ccc21 | > 100 | > 100 | > 100 | > 100 | > 100 | > 100 | > 100 | > 100 | > 100 | > 100 | > 100 | > 100 | > 100 | > 100 | > 100 | > 100 | > 100 | > 100 | > 100 | > 100 |
| COc1ccc(-c2nn(-c3cccc(Cl)c3)cc2-c2nc(N)[nH]c(=O)c2C#N)cc1 | 15.4 | 51.4 | 27.9 | 15.3 | > 100 | 9.8 | > 100 | 53.9 | 24.9 | 50.8 | 3.33 | 14.6 | 4.98 | 2.52 | 9.92 | 3.11 | 6.41 | 13.5 | 5.87 | 5.13 |
| O=[N+]([O-])c1ccc(Sc2c3ccccc3nc3ccccc23)cn1 | 35 | > 100 | 58.4 | 11.7 | 17.4 | 10.8 | 43.2 | 28.6 | > 81.7 | > 100 | – | – | – | – | – | – | – | – | – | – |
| Oc1ccc(/C=C/c2cc(O)cc3c2C(c2cc(O)cc(O)c2)C(c2ccc(O)c(O)c2)O3)cc1 (centres undefined) | 42.4 | > 100 | > 100 | 98.1 | 33.8 | 83 | > 100 | > 100 | 57.4 | > 100 | – | – | – | – | – | – | – | – | – | – |
| CN(C)CCNc1nc2ccccc2c2c(=O)c3cc(F)ccc3sc12 | 3.18 | 2.95 | 3.23 | 2.93 | 3.01 | 3.79 | 3 | 3.33 | 3.23 | 4.83 | 1.73 | 1.58 | 1.79 | 1.58 | 1.65 | 1.86 | 1.57 | 1.76 | 1.68 | 2.1 |
| C1COCCSC2=C(SCCO1)SC(=C1SC3=C(SCCOCCOCCS3)S1)S2 | > 100 | > 100 | > 100 | > 100 | > 100 | > 100 | > 100 | > 100 | > 100 | > 100 | – | – | – | – | – | – | – | – | – | – |
| COc1ccc2c(c1)C(C)Cc1c(ncnc1-n1cnc3ccccc31)N2C (centres undefined) | 21.2 | 43.9 | 22.9 | 17.2 | 27.4 | 0.744 | 34 | 37.1 | 10.4 | 16.6 | 0.735 | 6.21 | 10.1 | 0.373 | 0.635 | 0.254 | 0.958 | 0.793 | 0.922 | 0.642 |
| Oc1ccc(Oc2cnc3ccccc3n2)cc1 | > 100 | > 100 | > 100 | 81.1 | > 100 | > 100 | > 100 | > 100 | > 100 | > 100 | > 100 | > 100 | > 100 | 29.5 | 76.6 | > 100 | > 100 | > 100 | > 100 | > 100 |
| O=C(N/N=C/c1ccc(O)cc1O)c1cccnc1 | 17.5 | > 100 | 62.6 | 45.6 | > 100 | > 100 | 69 | > 100 | > 100 | > 100 | 2.38 | 14 | 3.59 | 1.76 | 1.47 | 3.21 | 3.58 | 2.52 | 4.72 | 4.66 |
| NCCCn1c2c(c3ccccc3c1=O)C(=O)c1ccccc1-2 | 2.69 | 2.94 | 3.03 | 0.364 | – | 13.4 | 0.465 | 4.19 | 1.01 | 0.815 | 0.247 | 0.306 | 0.842 | 0.0435 | < 0.0359 | 0.564 | 0.0791 | 0.425 | 0.0684 | 0.0597 |

Reference: PubChem BioAssay (NCI)
